Results from patent publication US20110039824A1, “1,2,3,6-tetrahydroazepino[4,5-b]indole-5-carboxylate nuclear receptor inhibitors” (Wyeth, priority 2008, published 2011).
Where a name gives a salt, the structure may show the parent alone.

biological target: T1, Gal4/hFXR fusion protein (Homo sapiens, UniProt Q96RI1); experiment: Gal4/hFXR fusion protein agonist activity in human 293 cells (luciferase); type: cell-based; set-up: Potency Range; other: Gal4/FXR agonist potency in 293 cells; settings: Gal4/FXR agonist potency in 293 cells; table does not say whether hFXR or mFXR; read-out: Potency Range
T1 sequence (Q96RI1 262-486 limits assumed): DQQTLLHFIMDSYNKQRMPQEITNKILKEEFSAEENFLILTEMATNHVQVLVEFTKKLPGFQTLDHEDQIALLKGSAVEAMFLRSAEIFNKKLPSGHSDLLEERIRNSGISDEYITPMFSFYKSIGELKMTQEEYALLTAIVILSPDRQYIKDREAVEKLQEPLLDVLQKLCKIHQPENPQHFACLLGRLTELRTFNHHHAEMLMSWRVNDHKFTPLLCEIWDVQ
Protocol: • Assay Medium: Phenol red free high glucose Dulbecco's modified Eagle's medium with sodium pyruvate (Cellgro, #17-205-CV) supplemented with 10% fetal bovine serum (Gibco, 16000-044), 1% glutamax (Gibco, 35050-061), 100 units/mL penicillin and 100 μg/mL streptomycin (Gibco, 15140-122). • Culturplate-96 (PerkinElmer, 6005688) • Lysis buffer (Promega, E3971) • Luciferase assay reagent (Promega E1483)
• 1. Compounds to be tested were prepared as 2× stocks in assay medium. • 2. […] The supernatant was removed and the cells were resuspended in 1 ml assay medium. The cells were counted and diluted in assay medium to 200,000 cells per ml. The cells were then plated at 10,000 cells per well in Culturplate-96 plates in 50 uL assay medium. The cells were incubated at 37° C. for approximately 1 hour. • 3. […] All assays included 1 uM GW4064 (Maloney et al., J. Med. Chem., 2000, 43(16), 2971-2974) as a reference standard. • 4. Cells were incubated for 24 hours at 37° C.
• 5. The medium was removed, and the cells were lysed in 25 uL lysis buffer (Promega, E3971). • 6. The plates were analyzed for luciferase activity with luciferase assay reagent (Promega E1483). Plates were read on Victor^3V instrument using the protocol “Shuguang Luciferase assay” (dispense volume=100 uL, plate type=“Packard Viewplate”, measurement height=8 mm from bottom of plate, 5 second read per well).
• 1. For agonist single point screening, data were analyzed in Excel. Each compound was tested in triplicate. • 2. For agonist potency determinations, statistical analysis of the data was performed using a customized Excel/SAS program. Dose response curves were generated using a four parameter (min, max, slope, and EC50 where EC50 is defined as the concentration which corresponds to midway between the estimated max and min) logistic model using log-transformed data (data was transformed on both sides with known lambda=0). • 3.

Compound | EC50 [nM]
CC(C)OC(=O)C1=CN(C(=O)c2cccc(CN3C[C@@H](C)O[C@H](C)C3)c2)CC(C)(C)c2c1[nH]c1ccccc21 [Example 5, Isopropyl 3-(3-{[(2R,6R)-2,6-dimethylmorpholin-4-yl]methyl}benzoyl)-1,1-dimethyl-1,2,3,6-tetrahydroazepino[4,5-b]indole-5-carboxylate] | 100 to 500
CC(C)OC(=O)C1=CN(C(=O)c2cccc(CN3C[C@@H](C)O[C@@H](C)C3)c2)CC(C)(C)c2c1[nH]c1ccccc21 [Example 6, Isopropyl 3-(3-{[(2R,6S)-2,6-dimethylmorpholin-4-yl]methyl}benzoyl)-1,1-dimethyl-1,2,3,6-tetrahydroazepino[4,5-b]indole-5-carboxylate] | 500 to 1000
CC(C)OC(=O)C1=CN(C(=O)c2cccc(CN3C[C@@H](C)N[C@@H](C)C3)c2)CC(C)(C)c2c1[nH]c1ccccc21 [Example 7, Isopropyl 3-(3-{[(3R,5S)-3,5-dimethylpiperazin-1-yl]methyl}benzoyl)-1,1-dimethyl-1,2,3,6-tetrahydroazepino[4,5-b]indole-5-carboxylate] | 500 to 1000
CC(C)OC(=O)C1=CN(C(=O)c2cccc(CN3CCC(C(N)=O)CC3)c2)CC(C)(C)c2c1[nH]c1ccccc21 [Example 8, Isopropyl 3-{3-[(4-carbamoylpiperidin-1-yl)methyl]benzoyl}-1,1-dimethyl-1,2,3,6-tetrahydroazepino[4,5-b]indole-5-carboxylate] | 500 to 1000
CC(C)OC(=O)C1=CN(C(=O)c2cccc(CN3CCC(N4CCOCC4)CC3)c2)CC(C)(C)c2c1[nH]c1ccccc21 [Example 9, Isopropyl 1,1-dimethyl-3-{3-[(4-morpholin-4-ylpiperidin-1-yl)methyl]benzoyl}-1,2,3,6-tetrahydroazepino[4,5-b]indole-5-carboxylate] | 1000 to 10000
CC(C)OC(=O)C1=CN(C(=O)c2cccc(CN3CCSC3)c2)CC(C)(C)c2c1[nH]c1ccccc21 [Example 10, Isopropyl 1,1-dimethyl-3-[3-(1,3-thiazolidin-3-ylmethyl)benzoyl]-1,2,3,6-tetrahydroazepino[4,5-b]indole-5-carboxylate] | 100 to 500
CC(C)OC(=O)C1=CN(C(=O)c2cccc(CN3CCC(N4CCCCC4)CC3)c2)CC(C)(C)c2c1[nH]c1ccccc21 [Example 11, Isopropyl 3-[3-(1,4′-bipiperidin-1′-ylmethyl)benzoyl]-1,1-dimethyl-1,2,3,6-tetrahydroazepino[4,5-b]indole-5-carboxylate] | 1000 to 10000
CC(C)OC(=O)C1=CN(C(=O)c2cccc(CN3CCC(N4CCCC4)CC3)c2)CC(C)(C)c2c1[nH]c1ccccc21 [Example 12, Isopropyl 1,1-dimethyl-3-{3-[(4-pyrrolidin-1-ylpiperidin-1-yl)methyl]benzoyl}-1,2,3,6-tetrahydroazepino[4,5-b]indole-5-carboxylate] | 1000 to 10000
CC(C)OC(=O)C1=CN(C(=O)c2cccc(CN3C[C@@H](C)C[C@H](C)C3)c2)CC(C)(C)c2c1[nH]c1ccccc21 [Example 13, Isopropyl 3-(3-{[(3S,5S)-3,5-dimethylpiperidin-1-yl]methyl}benzoyl)-1,1-dimethyl-1,2,3,6-tetrahydroazepino[4,5-b]indole-5-carboxylate] | 100 to 500
CC(C)OC(=O)C1=CN(C(=O)c2cccc(CN3C[C@H](C)C[C@H](C)C3)c2)CC(C)(C)c2c1[nH]c1ccccc21 [Example 14, Isopropyl 3-(3-{[(R3R,5S)-3,5-dimethylpiperidin-1-yl]methyl}benzoyl)-1,1-dimethyl-1,2,3,6-tetrahydroazepino[4,5-b]indole-5-carboxylate] | 1000 to 10000

Results, then the molecule that gave them:

EC50 [nM] | Compound
100 to 500 | CC(C)OC(=O)C1=CN(C(=O)c2cccc(CN3CCSCC3)c2)CC(C)(C)c2c1[nH]c1ccccc21 [Example 15, Isopropyl 1,1-dimethyl-3-[3-(thiomorpholin-4-ylmethyl)benzoyl]-1,2,3,6-tetrahydroazepino[4,5-b]indole-5-carboxylate]
1000 to 10000 | CC(C)OC(=O)C1=CN(C(=O)c2cccc(CN3[C@@H](C)CC[C@@H]3C)c2)CC(C)(C)c2c1[nH]c1ccccc21 [Example 16, Isopropyl 3-(3-{[(2S,5S)-2,5-dimethylpyrrolidin-1-yl]methyl}benzoyl)-1,1-dimethyl-1,2,3,6-tetrahydroazepino[4,5-b]indole-5-carboxylate]
500 to 1000 | CC(C)OC(=O)C1=CN(C(=O)c2cccc(CNC3CCCCC3)c2)CC(C)(C)c2c1[nH]c1ccccc21 [Example 17, Isopropyl 3-{3-[(cyclohexylamino)methyl]benzoyl}-1,1-dimethyl-1,2,3,6-tetrahydroazepino[4,5-b]indole-5-carboxylate]
500 to 1000 | CC(C)OC(=O)C1=CN(C(=O)c2cccc(CN(C)C3CCCCC3)c2)CC(C)(C)c2c1[nH]c1ccccc21 [Example 18, Isopropyl 3-(3-{[cyclohexyl(methyl)amino]methyl}benzoyl)-1,1-dimethyl-1,2,3,6-tetrahydroazepino[4,5-b]indole-5-carboxylate]
500 to 1000 | CC(C)OC(=O)C1=CN(C(=O)c2cccc(CN3CCC(O)CC3)c2)CC(C)(C)c2c1[nH]c1ccccc21 [Example 19, Isopropyl 3-{3-[(4-hydroxypiperidin-1-yl)methyl]benzoyl}-1,1-dimethyl-1,2,3,6-tetrahydroazepino[4,5-b]indole-5-carboxylate]
500 to 1000 | CC(C)OC(=O)C1=CN(C(=O)c2cccc(CN3CCCC(C(N)=O)C3)c2)CC(C)(C)c2c1[nH]c1ccccc21 (stereo not drawn) [Example 20, isopropyl 3-{3-[(3-carbamoylpiperidin-1-yl)methyl]benzoyl}-1,1-dimethyl-1,2,3,6-tetrahydroazepino[4,5-b]indole-5-carboxylate]
500 to 1000 | CC(C)OC(=O)C1=CN(C(=O)c2cccc(CN3CCS(=O)(=O)CC3)c2)CC(C)(C)c2c1[nH]c1ccccc21 [Example 21, Isopropyl 3-{3-[(1,1-dioxidothiomorpholin-4-yl)methyl]benzoyl}-1,1-dimethyl-1,2,3,6-tetrahydroazepino[4,5-b]indole-5-carboxylate]
1000 to 10000 | CC(C)OC(=O)C1=CN(C(=O)c2cccc(CNC3CCNCC3)c2)CC(C)(C)c2c1[nH]c1ccccc21 [Example 22, Isopropyl 1,1-dimethyl-3-{3-[(piperidin-4-ylamino)methyl]benzoyl}-1,2,3,6-tetrahydroazepino[4,5-b]indole-5-carboxylate dihydrochloride]
